Data from US6933290B2, “2-{N-(2-amino-3-(heteroaryl or aryl)propionyl)-aminoacyl}-amino}-alkylboronic acid derivatives” (Novartis AG, priority 2001, dated 2005).

The molecules below were run against T1, chymotrypsin-like activity of the 20S proteasome (Homo sapiens, UniProt P20618+P28074) (assay: Inhibition of the chymotrypsin-like activity of the 20S proteasome (Suc-LLVY-AMC hydrolysis)). Conditions: purified human placenta 20S proteasome, Suc-LLVY-AMC substrate, read-out: IC50 [μM] (results of one or two experiments).
T1 construct: purified human placenta 20S proteasome; tissue Diabetes Forschungsinstitut, Düsseldorf, Germany; host or cells: human placenta
Assay type: biochemical
Source text: It is based on the hydrolysis of the fluorogenic peptide Suc-LLVY-AMC (Succinyl-leucine-leucine-vatine-tyrosine-7-amino-4-methyl-coumarin), which is cleaved exclusively at the Y-AMC bond by the 20S proteasome. Hydrolysis of this peptide is accompanied by an increase in fluorescence intensity (λex (excitation wavelength): 355 nm; μem (emission wavelength): 460 nm) due to release of the […] that accompanies diffusion apart of the hydrolysis product Suc-LLVY.
2 μl of a 1 mM solution of a test compound in DMSO (dimethylsulfoxide, 20 μM final concentration in the well) are preincubated for 60 min at room temperature in black 96-well microtiter plates together with a mixture of 1 μl purified human placenta 20S proteasome (Diabetes Forschungsinstitut, DÜsseldorf, Germany; about 100 ng proteasome, depending on the proteasome preparation) and 47 μl buffer-Ca (5 mM CaCl2, 20 mM Tris/HCl (Tris-(hydroxymethyl)-amino-methane hydrochloride) pH 8.0). 3 μl of a 2.67 mM solution of Suc-LLVY-AMC (Bachem, Switzerland) in DMSO (80 μM final concentration in the well) and 47 μl buffer-Ca are mixed and added. The resulting mixture is incubated for 3-24 h at 37° C. If desired, proteolysis of the substrate can be stopped by addition of 50 μl stop solution (100 mM monochloroacetic acid, 130 mM NaOH, 100 mM acetic acid, pH=4.3). The fluorescence is monitored with a FLUOROSKAN ASCENT™ microtiter plate reader.
For each measurement series two control experiments are carried out: • 1.) 0% value: 2 μl DMSO are used in the above described assay instead of 2 μl of a 1 mM solution of a test compound in DMSO and 48 μl buffer-Ca instead of a mixture of 47 μl buffer-Ca and 1 μl purified proteasome. • 2.) 100% value: in the above described assay 2 μl DMSO are used instead of 2 μl of a 1 mM solution of the test compound in DMSO. Calculation [formula]
The IC50 value is defined as that concentration of a compound at which the remaining activity is 50% compared to the […].
Work on COc1cc(C[C@@H](Nc2cccc(-c3ccccc3)c2)C(=O)N[C@H](C(=O)N[C@@H](CC(C)C)B(O)O)C(C)C)cc(OC)c1OC [Example 22, (R)-1-{(S)-2-[(R)-2-(Biphenyl-3-ylamino)-3-(3,4,5-trimethoxy-phenyl)-propionylamino]-3-methyl-butyrylamino}-3-methyl-butylboronic acid] yielded an IC50 of 0.0017 µM. COc1cc(C[C@H](Nc2cccc(-c3ccccc3)c2)C(=O)N[C@H](C(=O)NC(CC(C)C)B2OC(C)(C)C(C)(C)O2)C(C)C)cc(OC)c1OC (stereo partly drawn) [Example 23, (S)-2-[(S)-2-(Biphenyl-3-ylamino)-3-(3,4,5-trimethoxy-phenyl)-propionylamino]-3-methyl-N-[3-methyl-1-(4,4,5,5-tetramethyl-[1,3,2]dioxaborolan-2-yl)-butyl]-butyramide] showed an IC50 of 0.0021 µM. Work on COc1cc(C[C@H](Nc2cccc(-c3ccccc3)c2)C(=O)N[C@H](C(=O)NC(CC(C)C)B(O)O)C(C)C)cc(OC)c1OC (stereo partly drawn) [Example 24, 1-{(S)-2-[(S)-2-(Biphenyl-3-ylamino)-3-(3,4,5-trimethoxy-phenyl)-propionylamino]-3-methyl-butyrylamino}-3-methyl-butylboronic acid] yielded an IC50 of 0.0021 µM. Molecule COc1ccc(C[C@H](NC(=O)Cc2cccc(Oc3ccccc3)c2)C(=O)N[C@H](C(=O)N[C@@H](CC(C)C)B2O[C@@H]3C[C@@H]4C[C@@H](C4(C)C)[C@]3(C)O2)C(C)C)cc1OC [Example 25, (S)-2-{(S)-3-(3,4-Dimethoxy-phenyl)-2-[2-(3-phenoxy-phenyl)-acetylamino]-propionylamino}-3-methyl-N-[(R)-3-methyl-1-((1S,2S,6R,8S)-2,9,9-trimethyl-3,5-dioxa-4-bora-tricyclo[6.1.1.0^2,6]dec-4-yl)-butyl]-butyramide] has an IC50 of 0.0008 µM. In the case of COc1ccc(C[C@H](NC(=O)Cc2cccc(Oc3ccccc3)c2)C(=O)N[C@H](C(=O)N[C@@H](CC(C)C)B(O)O)C(C)C)cc1OC [Example 26, (R)-1-((S)-2-{(S)-3-(3,4-Dimethoxy-phenyl)-2-[2-(3-phenoxy-phenyl)-acetylamino]-propionylamino}-3-methyl-butyrylamino)-3-methyl-butylboronic acid], the IC50 is reported as 0.001 µM. COc1cc(C[C@H](NC(=O)Cc2cccc(Oc3ccccc3)c2)C(=O)N[C@H](C(=O)N[C@@H](CC(C)C)B2O[C@@H]3C[C@@H]4C[C@@H](C4(C)C)[C@]3(C)O2)C(C)C)cc(OC)c1OC [Example 27, (S)-3-Methyl-N-[(R)-3-methyl-1-((1S,2S,6R,8S)-2,9,9-trimethyl-3,5-dioxa-4-bora-tricyclo[6.1.1.0^2,6]dec-4-yl)-butyl]-2-[(S)-2-[2-(3-phenoxy-phenyl)-acetylamino]-3-(3,4,5-trimethoxy-phenyl)-propionylamino]-butyramide] showed an IC50 of 0.0003 µM. COc1cc(C[C@H](NC(=O)Cc2cccc(Oc3ccccc3)c2)C(=O)N[C@H](C(=O)N[C@@H](CC(C)C)B(O)O)C(C)C)cc(OC)c1OC [Example 28, (R)-3-Methyl-1-{(S)-3-methyl-2-[(S)-2-[2-(3-phenoxy-phenyl)-acetylamino]-3-(3,4,5-trimethoxy-phenyl)-propionylamino]-butyrylamino}-butylboronic acid] gave an IC50 of 0.0008 µM. CC(C)C[C@H](NC(=O)[C@@H](NC(=O)[C@H](Cc1ccc(OCc2ccccc2)cc1)NC(=O)Cc1cccc(OCc2ccccc2)c1)C(C)C)B1O[C@@H]2C[C@@H]3C[C@@H](C3(C)C)[C@]2(C)O1 [Example 29, (S)-2-{(S)-3-(4-Benzyloxy-phenyl)-2-[2-(3-benzyloxy-phenyl)-acetylamino]-propionylamino}-3-methyl-N-[(R)-3-methyl-1-((1S,2S,6R,8S)-2,9,9-trimethyl-3,5-dioxa-4-bora-tricyclo[6.1.1.0^2,6]dec-4-yl)-butyl]-butyramide] showed an IC50 of 0.004 µM. CC(C)C[C@H](NC(=O)[C@@H](NC(=O)[C@H](Cc1ccc(OCc2ccccc2)cc1)NC(=O)Cc1cccc(OCc2ccccc2)c1)C(C)C)B(O)O [Example 30, (R)-1-((S)-2{(S)-3-(4-Benzyloxy-phenyl)-2-[2-(3-benzyloxy-phenyl)-acetylamino]-propionylamino}-3-methyl-butyrylamino)-3-methyl-butylboronic acid] was tested, and the IC50 was 0.0059 µM. For COc1cc(C[C@H](Nc2cccc(-c3ccccc3)c2)C(=O)N[C@@H](CC(C)C)C(=O)N[C@@H](CC(C)C)B2O[C@@H]3C[C@@H]4C[C@@H](C4(C)C)[C@]3(C)O2)cc(OC)c1OC [Example 31, (S)-2-[(S)-2-(Biphenyl-3-ylamino)-3-(3,4,5-trimethoxy-phenyl)-propionylamino]-4-methyl-pentanoic acid [(R)-3-methyl-1-((1S,2S,6R,8S)-2,9,9-trimethyl-3,5-dioxa-4-bora-tricyclo[6.1.1.0^2,6]dec-4-yl)-butyl]-amide], the IC50 was 0.0022 µM. With COc1cc(C[C@H](Nc2cccc(-c3ccccc3)c2)C(=O)N[C@@H](CC(C)C)C(=O)N[C@@H](CC(C)C)B(O)O)cc(OC)c1OC [Example 32, (R)-1-{(S)-2-[(S)-2-(Biphenyl-3-ylamino)-3-(3,4,5-trimethoxy-phenyl)-propionylamino]-4-methyl-pentanoylamino}-3-methyl-butylboronic acid] the IC50 was 0.0037 µM. COc1ccc(C[C@H](Nc2cccc(-c3ccccc3)c2)C(=O)N[C@@H](CC(C)C)C(=O)N[C@@H](CC(C)C)B2O[C@@H]3C[C@@H]4C[C@@H](C4(C)C)[C@]3(C)O2)cc1OC [Example 33, (S)-2-[(S)-2-(Biphenyl-3-ylamino)-3-(3,4-dimethoxy-phenyl)-propionylamino]-4-methyl-pentanoic acid [(R)-3-methyl-1-((1S,2S,6R,8S)-2,9,9-trimethyl-3,5-dioxa-4-bora-tricyclo[6.1.1.0^2,6]dec-4-yl)-butyl]-amide] was tested, and the IC50 was 0.0026 µM. For COc1ccc(C[C@H](Nc2cccc(-c3ccccc3)c2)C(=O)N[C@@H](CC(C)C)C(=O)N[C@@H](CC(C)C)B2O[C@@H]3C[C@@H]4C[C@@H](C4(C)C)[C@]3(C)O2)cc1 [Example 35, (S)-2-[(S)-2-(Biphenyl-3-ylamino)-3-(4-methoxy-phenyl)-propionylamino]-4-methyl-pentanoic acid [(R)-3-methyl-1-((1S,2S,6R,8S)-2,9,9-trimethyl-3,5-dioxa-4-bora-tricyclo[6.1.1.0^2,6]dec-4-yl)-butyl]-amide], the IC50 was 0.0023 µM. In the case of COc1ccc(C[C@H](Nc2cccc(-c3ccccc3)c2)C(=O)N[C@@H](CC(C)C)C(=O)N[C@@H](CC(C)C)B(O)O)cc1 [Example 36, (R)-1-{(S)-2-[(S)-2-(Biphenyl-3-ylamino)-3-(4-methoxy-phenyl)-propionylamino]-4-methyl-pentanoylamino}-3-methyl-butylboronic acid], the IC50 is reported as 0.0023 µM. In the case of COc1cc(C[C@H](Nc2cccc(-c3ccccc3)c2)C(=O)N[C@@H](C)C(=O)N[C@@H](CC(C)C)B2O[C@@H]3C[C@@H]4C[C@@H](C4(C)C)[C@]3(C)O2)cc(OC)c1OC [Example 37, (S)-2-(Biphenyl-3-ylamino)-N-{(S)-1-[(R)-3-methyl-1-((1S,2S,6R,8S)-2,9,9-trimethyl-3,5-dioxa-4-bora-tricyclo[6.1.1.0^2,6]dec-4-yl)-butylcarbamoyl]-ethyl}-3-(3,4,5-trimethoxy-phenyl)-propionamide], the IC50 is reported as 0.0013 µM. Work on COc1cc(C[C@H](Nc2cccc(-c3ccccc3)c2)C(=O)N[C@@H](C)C(=O)N[C@@H](CC(C)C)B(O)O)cc(OC)c1OC [Example 38, (R)-1-{(S)-2-[(S)-2-(Biphenyl-3-ylamino)-3-(3,4,5-trimethoxy-phenyl)-propionylamino]-propionylamino}-3-methyl-butylboronic acid] yielded an IC50 of 0.0017 µM. With COc1ccc(C[C@H](Nc2cccc(-c3ccccc3)c2)C(=O)N[C@@H](C)C(=O)N[C@@H](CC(C)C)B2O[C@@H]3C[C@@H]4C[C@@H](C4(C)C)[C@]3(C)O2)c(OC)c1OC [Example 39, (S)-2-(Biphenyl-3-ylamino)-N-{(S)-1-[(R)-3-methyl-1-((1S,2S,6R,8S)-2,9,9-trimethyl-3,5-dioxa-4-bora-tricyclo[6.1.1.0^2,6]dec-4-yl)-butylcarbamoyl]-ethyl}-3-(2,3,4-trimethoxy-phenyl)-propionamide] the IC50 was 0.0019 µM. For COc1ccc(C[C@H](Nc2cccc(-c3ccccc3)c2)C(=O)N[C@@H](C)C(=O)N[C@@H](CC(C)C)B(O)O)c(OC)c1OC [Example 40, (R)-1-{(S)-2-[(S)-2-(Biphenyl-3-ylamino)-3-(2,3,4-trimethoxy-phenyl)-propionylamino]-propionylamino}-3-methyl-butylboronic acid], the IC50 was 0.0022 µM.
